Results: patent publication US9056840B2, “Coelenterazine analogues and coelenteramide analogues” (JNC Corporation, priority 2010, dated 2015)

Experiments:
Renilla luciferase = target: T1, Renilla luciferase (Renilla reniformis, UniProt P27652); assay: Substrate specificity and luminescence activity of Renilla luciferase; assay type: biochemical; conditions: measured for 10 seconds, coelenterazine = 100
T1 construct: made in house
T1 sequence (P27652 1-311): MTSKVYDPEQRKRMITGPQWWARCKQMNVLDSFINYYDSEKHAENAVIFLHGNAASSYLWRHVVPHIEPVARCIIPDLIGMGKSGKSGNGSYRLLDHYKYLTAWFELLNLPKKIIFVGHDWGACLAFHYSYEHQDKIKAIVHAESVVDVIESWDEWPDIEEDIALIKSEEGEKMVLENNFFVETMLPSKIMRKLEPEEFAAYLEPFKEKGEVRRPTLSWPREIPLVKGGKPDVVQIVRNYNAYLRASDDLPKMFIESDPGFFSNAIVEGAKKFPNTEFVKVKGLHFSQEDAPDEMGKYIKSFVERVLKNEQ
Experimental: Renilla luciferase was purified by the method described in Inouye, S. & Shimomura, O. Biochem. Biophys. Res. Commun. (1997) 233: 349-353, and used for assay.
(§1) After 1 μl of Renilla luciferase (0.45 mg/ml) was dissolved in 100 μl of 30 mM Tris-HCl (pH 7.6) containing 10 mM EDTA, 1 μl of a solution of coelenterazine or its analogue (1 μg/μl) in ethanol was added to the solution to start the luminescence reaction. The luminescence activity was measured for 10 seconds on a luminometer luminescencer-PSN AB2200 (manufactured by Atto Co., Ltd.). The luminescence activity was determined by repeating the measurement of luminescence activity described above 3 times and expressed in terms of the maximum luminescence intensity (Imax) of luminescence activity.

[1] = target: T2, 19 kDa protein from Oplophorus luciferase (Oplophorus gracilirostris, UniProt Q9GV45); assay: Substrate specificity and luminescence activity of the 19 kDa protein from Oplophorus luciferase; assay type: biochemical; conditions: measured for 60 seconds, coelenterazine = 100
T2 construct: made in house
T2 sequence (Q9GV45 28-196): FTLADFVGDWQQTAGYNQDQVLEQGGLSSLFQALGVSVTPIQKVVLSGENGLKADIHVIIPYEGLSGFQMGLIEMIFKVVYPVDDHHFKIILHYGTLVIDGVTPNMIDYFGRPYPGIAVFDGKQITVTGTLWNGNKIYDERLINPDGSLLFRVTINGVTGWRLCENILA
Experimental: The 19 kDa protein from Oplophorus luciferase was purified by the method described in Inouye, S. and Sasaki, S., Protein Express. Purif. (2007) 56: 261-268 and provided for use.
as §1, with “of the 19 kDa protein (2.3 mg/ml) from Oplophorus” for “of Renilla”, “luciferase containing 1 mM DTT” for “luciferase (0.45 mg/ml)”, “luminescence reaction, and the” for “luminescence reaction. The”, “for 60” for “for 10”, “measurement” for “measurement of luminescence activity”

Gaussia luciferase = assay: Substrate specificity and luminescence activity of Gaussia luciferase; assay type: biochemical; conditions: measured for 10 seconds, coelenterazine = 100
Experimental: Gaussia luciferase was purified by the method described in Japanese Patent Application KOKAI No. 2008-099669 and provided for use. After 1 μl of Gaussia luciferase (0.024 mg/ml) was dissolved in 100 μl of phosphate buffered saline (manufactured by Sigma Inc.) containing 0.01% Tween 20 (manufactured by Sigma Inc.) and 10 mM EDTA, 1 μl of a solution of coelenterazine or its analogue (1 μg/μl) in ethanol was mixed with the solution to start the luminescence reaction. The luminescence activity was measured for 10 seconds on a luminometer luminescencer-PSN AB2200 (manufactured by Atto Co., Ltd.). The luminescence activity was determined by repeating the measurement described above 3 times and expressed in terms of the maximum luminescence intensity (Imax) of luminescence activity.

apoaequorin [2] = target: T3, apoaequorin (Aequorea victoria, UniProt P07164); assay: Fluorescence spectra of semi-synthetic gFP (coelenteramide analogue + apoaequorin, EDTA); assay type: physicochemical; conditions: 10 mM EDTA buffer, excitation 337 nm
T3 construct: purchased Chisso Corporation
T3 sequence (P07164 other isoform, or with tags, fused parts or gaps with the stated changes): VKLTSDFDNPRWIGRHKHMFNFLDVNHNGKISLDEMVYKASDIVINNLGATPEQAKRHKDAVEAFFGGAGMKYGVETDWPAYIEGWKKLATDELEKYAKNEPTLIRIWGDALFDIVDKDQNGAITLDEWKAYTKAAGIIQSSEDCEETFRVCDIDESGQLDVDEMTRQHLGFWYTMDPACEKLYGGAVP
Experimental: Semi-synthetic gFP was prepared from recombinant apoaequorin and coelenteramide analogues as follows. In 1 ml of 50 mM Tris-HC 1 (pH 7.6) containing 10 mM EDTA and 1 mM DTT, apoaequorin (0.2 mg) was mixed with 8 μl of a coelenteramide analogue (1 μg/μl in anhydrous methanol). The mixture was allowed to stand 4° C. for 16 hours to prepare semi-synthetic gFP-like protein (hereinafter sometimes simply referred to as “semi-synthetic gFP”).
(§2) The fluorescence spectra were determined as follows. For coelenteramide analogue alone, the fluorescence was measured according to the procedures for semi-synthetic gFP and semi-synthetic BFP described in EXAMPLES 11 and 12, except for in the absence of apoaequorin, using 1 ml of 50 mM Tris-HCl (pH 7.6) containing 10 mM EDTA and 1 mM DTT or 1 ml of 50 mM Tris-HCl (pH 7.6) containing 10 mM CaCl2 and 1 mM DTT, in the final concentration of coelenteramide analogue adjusted to 8 μg/ml. The fluorescence spectra were measured at 25° C. in a quartz cell (10 mm light path length) using a Jasco FP-6500 spectrofluorometer (excitation wavelength: 337 nm, emission/excitation bandwidth: 3 nm; response: 0.5 sec, scan speed, 1000 nm/min).

apoaequorin [3] = target: T3, apoaequorin; assay: Fluorescence spectra of semi-synthetic BFP (coelenteramide analogue + apoaequorin, CaCl2); assay type: physicochemical; conditions: 10 mM CaCl2 buffer, excitation 337 nm
Experimental: Semi-synthetic gFP was prepared from recombinant apoaequorin and coelenteramide analogues as follows. In 1 ml of 50 mM Tris-HC 1 (pH 7.6) containing 10 mM CaCl2 and 1 mM DTT, apoaequorin (0.2 mg) was mixed with 8 μl of a coelenteramide analogue (1 μg/μl in anhydrous methanol). The mixture was allowed to stand at 4° C. for 16 hours to prepare semi-synthetic BFP-like protein (hereinafter sometimes simply referred to as “semi-synthetic BFP”).
as §2

[4] = Fluorescence spectra of coelenteramide analogue alone (absence of apoaequorin); assay type: physicochemical; conditions: analogue alone 8 μg/ml; for Coelenteramide (Buffer containing CaCl2) Fluorescence intensity (rlu) / Coelenteramide (Buffer containing CaCl2) Maximum fluorescence wavelength λmax (nm): 10 mM CaCl2 buffer pH 7.6, excitation 337 nm; for Coelenteramide (EDTA-containing buffer) Fluorescence intensity (rlu) / Coelenteramide (EDTA-containing buffer) Maximum fluorescence wavelength λmax (nm): 10 mM EDTA buffer pH 7.6, excitation 337 nm
Experimental: as §2

apoaequorin [5] = target: T3, apoaequorin; assay: Luminescence patterns of semi-synthetic aequorins, half decay time; assay type: biochemical; conditions: semi-synthetic aequorin; time in which luminescence becomes half of maximum; patterns measured for 60 seconds
Experimental: A solution of the regenerated semi-synthetic aequorin was diluted to 10-fold with 20 mM Tris-HCl (pH 7.6) containing 0.1% BSA (manufactured by Sigma, Inc.), 0.01 mM EDTA and 150 mM NaCl. The dilution was dispensed into a 96-well microplate (Nunc #236108) at 5 μl/well. The luminescence reaction was triggered by injecting 50 mM Tris-HCl (pH 7.6) containing 50 mM calcium chloride solution at 100 μl/well. The luminescence patterns for 60 seconds were measured to determine half decay time of the luminescence (a time period in which the luminescence becomes half of the maximum luminescence intensity).

apoaequorin [6] = target: T3, apoaequorin; assay: Luminescence spectra of semi-synthetic aequorins; assay type: biochemical; conditions: semi-synthetic aequorin, calcium added, 22 to 25° C.
Experimental: In a quartz cell with light path length of 10 mm, 1 ml of 50 mM Tris-HCl (pH 7.6) containing 1 mM EDTA and 100 μl (100 μg protein) of a solution of the regenerated semi-synthetic aequorin were charged. Next, 100 μl of 50 mM Tris-HCl (pH 7.6) containing 0.1 ml of 10 mM calcium chloride solution was added thereto to start the luminescence reaction. The spectra were measured on a spectrofluorimeter (FP-6500, manufactured by Jasco Co., Ltd.) with the excitation light source turned off. The measurement conditions were bandwidth: 20 nm, response: 0.5 second, scan speed: 2000 nm/min and 22 to 25° C. The luminescence spectra measured were corrected.

apoaequorin [7] = target: T3, apoaequorin; assay: Fluorescence spectra of fluorescent proteins formed from semi-synthetic aequorins by Ca2+; assay type: physicochemical; conditions: fluorescent protein generated by calcium from semi-synthetic aequorin; excitation 330 nm, 25° C.
Experimental: The fluorescence spectra of novel fluorescent proteins formed by the Ca^2+-triggerd reaction from semi-synthetic aequorins in EXAMPLE 3 were measured at 25° C. in a quartz cell (10 mm light path length) using a Jasco FP-6500 spectrofluorometer (excitation wavelength: 330 nm, emission/excitation bandwidth: 3 nm; response: 0.5 sec, scan speed, 1000 nm/min). The fluorescence spectra measured were corrected.

SMILES	Luminescence activity Imax (%) (Renilla luciferase)	Luminescence activity Imax (%) [1] [%]	Luminescence activity Imax (%) (Gaussia luciferase)	Semi-synthetic gFP (EDTA-containing buffer) Fluorescence intensity (rlu) (apoaequorin [2])	Semi-synthetic gFP (EDTA-containing buffer) Maximum fluorescence wavelength λmax (nm) (apoaequorin [2])	Fluorescence intensity (apoaequorin [3]) [rlu]	Semi-synthetic BFP (Buffer containing CaCl2) Maximum fluorescence wavelength λmax (nm) (apoaequorin [3])	Coelenteramide (Buffer containing CaCl2) Fluorescence intensity (rlu) [4] [rlu]	Coelenteramide (Buffer containing CaCl2) Maximum fluorescence wavelength λmax (nm) [4] [nm]	Coelenteramide (EDTA-containing buffer) Fluorescence intensity (rlu) [4] [rlu]	Coelenteramide (EDTA-containing buffer) Maximum fluorescence wavelength λmax (nm) [4] [nm]	Half decay time (apoaequorin [5]) [s]	Maximum luminescence wavelength λmax (nm) (apoaequorin [6])	Maximum fluorescence wavelength λmax (nm) (apoaequorin [7])	Relative fluorescence intensity (rlu) (apoaequorin [7])
O=c1c(Cc2ccc(O)cc2)nc2c(-c3ccsc3)[nH]c(-c3ccc(O)cc3)cn1-2 [Compound 3g, 2-(4-Hydroxybenzyl)-6-(4-hydroxyphenyl)-8-(thiophen-3-yl)imidazo[1,2-a]pyrazin-3(7H)-one]	0.00	0.3	0.00	–	–	–	–	–	–	–	–	–	–	–	–
O=C(Nc1ncc(-c2ccc(O)cc2)nc1Cc1ccccc1)c1cccc2cc(O)ccc12 [Compound 4z, N-[3-Benzyl-5-(4-hydroxyphenyl)pyrazin-2-yl]-6-hydroxy-1-naphthamide]	–	–	–	246.3	492.5	24.6	487.0	13.2	410.5	20.2	409.5	–	–	–	–
O=C(Cc1ccc(O)cc1)Nc1ncc(-c2ccc(O)cc2)nc1-c1cccc2ccccc12 [Compound 4d, 2-(4-Hydroxyphenyl)-N-[5-(4-hydroxyphenyl)-3-(naphthalen-1-yl)pyrazin-2-yl]acetamide]	–	–	–	58.8	504.5	98.3	487.0	12.9	463.5	12.4	462.5	–	–	–	–
O=C(Cc1ccc(O)cc1)Nc1ncc(-c2ccc(O)cc2)nc1-c1ccc(O)cc1 [Compound 4j, N-[3,5-Bis(4-hydroxyphenyl)pyrazin-2-yl]-2-(4-hydroxyphenyl)acetamide]	–	–	–	69.7	492.5	100.5	489.0	22.4	481.0	22.5	482.5	–	–	–	–
O=c1c(Cc2ccc(O)cc2)nc2c(-c3csc4ccccc34)[nH]c(-c3ccc(O)cc3)cn1-2 [Compound 3i, 8-(Benzo[b]thiophen-3-yl)-2-(4-hydroxybenzyl)-6-(4-hydroxyphenyl)imidazo[1,2-a]pyrazin-3(7H)-one]	0.00	0.09	0.00	–	–	–	–	–	–	–	–	–	–	–	–
O=C(Cc1ccc(O)cc1)Nc1ncc(-c2ccc(O)cc2)nc1C#Cc1ccccc1 [Compound 4p, 2-(4-Hydroxyphenyl)-N-[5-(4-hydroxyphenyl)-3-(phenylethynyl)pyrazin-2-yl]acetamide]	–	–	–	21.1	523.0	70.0	548.5	5.4	484.5	5.3	476.0	–	–	–	–
CC(C(=O)Nc1ncc(-c2ccc(O)cc2)nc1Cc1ccccc1)c1ccc(O)cc1 (centres unmarked) [Compound 4w, N-[3-Benzyl-5-(4-hydroxyphenyl)pyrazin-2-yl]-2-(4-hydroxyphenyl)propanamide]	–	–	–	54.6	487.0	181.4	466.0	1.4	450.5	1.3	451.0	–	–	–	–
Oc1ccc(Cc2nc3c(Cc4ccccc4)nc(-c4ccc(O)cc4)cn3c2O)cc1 [Coelenterazine]	100.0	100.0	100.0	–	–	–	–	–	–	–	–	0.81	472.5	473.0	63.3
